Tests used:
[1] = test system: A549 cells; test: Levels of SM in cell membranes, A549; type: cell-based, human
Description: (§1) At the same time, we have studied the anti-tumoral effect on these and other tumoral lines (see Table 2). The cells were treated in vehicle (water with 5% ethanol, control) or with compound 2OHOA for 24 hours in a concentration of 200 μM. The values of the ordinate axis represent the average±ESM (error standard mean for a number of experiments n=3-5) of SM levels (percent of total phospholipids), determined by chromatographic processes (followed by spectroscopy and image analysis), as a percentage of the total number of lipids compared with untreated cells (control). […] In addition to the techniques for measuring enzyme activity and levels of SM described above, other techniques have been tested which lead to very similar results as, gas chromatography, confocal microscopy, fluorescence spectroscopy, etc.
(§2) The levels of SM, cultivated in the absence (control) or presence of 200 μM of [−]2OHOA, in normal cell membranes (MRC-5 and IMR90) were measured, and also in several types of tumoral cells (see Table 2). In all cases, we detected that the membranes of tumoral cells have SM levels of about half or a third of that in normal cells (FIG. 1). […] For example, the spectrophotometry determination of solution fluorescence of the SM levels is a very simple, quick and efficient analysis method (FIG. 1D). […]

[2] = test system: BXPC3 cells; test: Cell growth inhibition, BXPC3; type: cell-based, human; parameters: key to Effect (anti-proliferation effect): +: inhibition of cell growth; −: absence of effect; settings: for IC50: BXPC3, sodium salt form
Description: (§3) At this respect, concentrations which inhibit growth of tumour cells (IC50) are lower for the enantiomer S ([−]) in all studied tumour lines (Table 5). […] In all of the cases, the molecules employed were in the form of sodium salt.

[3] = test system: MRC-5 cells; test: Levels of SM in cell membranes, MRC-5; type: cell-based, human
Description: as §1, §2

[4] = test system: HeLa cells; test: Cell growth inhibition, HeLa; type: cell-based, human; parameters: key to Effect (anti-proliferation effect): +: inhibition of cell growth; −: absence of effect; settings: for IC50: sodium salt form
Description: as §3

[5] = test system: HepG2 cells; test: Cell growth inhibition, HepG2; type: cell-based, human; parameters: key to Effect (anti-proliferation effect): +: inhibition of cell growth; −: absence of effect; settings: for IC50: HepG2, sodium salt form
Description: as §3

[6] = test system: IMR90 cells; test: Cell growth inhibition, IMR90; type: cell-based, human; parameters: key to Effect (anti-proliferation effect): +: inhibition of cell growth; −: absence of effect; settings: for IC50: IMR90 non tumor fibroblast, sodium salt form
Description: as §3

[7] = test system: PC3 cells; test: Cell growth inhibition, PC3; type: cell-based, human; parameters: key to Effect (anti-proliferation effect): +: inhibition of cell growth; −: absence of effect; settings: for IC50: PC3, sodium salt form
Description: as §3

[8] = test system: U118 cells; test: Levels of SM in cell membranes, U118; type: cell-based, human; parameters: SM levels in the cell membrane (activation of enzyme EC 2.7.8.27): dose or concentration left out as unconfirmed; settings: for SM levels in the cell membrane (activation of enzyme EC 2.7.8.27): U118, 24 hours
[9] = test system: hypertense rats (strain SHR); test: Systolic arterial pressure in SHR rats; type: in vivo; settings: 600 mg/kg every 12 h, 15 days, orally
Description: B. Effects on arterial pressure: hypertense rats (strain SHR) were treated with 2OHOA racemic (+/−) and its optic isomers [−]2OHOA and [+]2OHOA (600 mg/kg every 12 h, 15 days, orally). […] Values of average±EEM systolic pressure (n=6) are shown.
What is more, we studied the effect of the isomers above on arterial pressure, body weight, and the level of cholesterol, triglycerides and glycemia (glucose in plasma) in SHR rats SHR (FIGS. 8B, 8C and 8D and 8E). […] Similarly, during 1 and 5 days of treatment, rats treated with the racemic loosed 11 gram of weight (approximately a 3% of their body weight), whereas animals of the group treated with enantiomer [−]2OHOA loosed 21 grams and animals of the group treated with enantiomer [+]2OHOA only loosed 7 grams of weight. On the other hand, a higher effect of enantiomer [+]2OHOA in the reduction of triglyceride (TG) and total cholesterol (CHOt) levels was observed (FIG. 8D) At this respect, plasmatic basal levels of TG in SHR rats are of 108 mg/dl and were reduced to 56 mg/dl after 2 weeks treatment […]. On the other hand, treatment with enantiomer [+]2OHOA inducted a reduction of plasmatic TG levels to 47 mg/dl, whereas enantiomer [−]2OHOA only produced a modest reduction to 81 mg/dl. […]

[10] = test system: 1321N1 cells; test: Levels of SM in cell membranes, 1321N1; type: cell-based, human
Description: as §1, §2

[11] = test system: SF767 cells; test: Levels of SM in cell membranes, SF767; type: cell-based, human
Description: as §1, §2

[12] = test system: Jurkat cells; test: Levels of SM in cell membranes, Jurkat; type: cell-based, human
Description: as §1, §2

[13] = test system: SH-SY5Y cells; test: Cell growth inhibition, SH-SY5Y; type: cell-based, human; parameters: key to Effect (anti-proliferation effect): +: inhibition of cell growth; −: absence of effect; settings: for IC50: SH-SY5Y, sodium salt form
Description: as §3

[14] = test system: HT29 cells; test: Levels of SM in cell membranes, HT29; type: cell-based, human; settings: HT29, 200 μM [−]2OHOA
Description: The levels of SM, cultivated in the absence (control) or presence of 200 μM of [−]2OHOA, in normal cell membranes (MRC-5 and IMR90) were measured, and also in several types of tumoral cells (see Table 2). In all cases, we detected that the membranes of tumoral cells have SM levels of about half or a third of that in normal cells (FIG. 1). We can therefore assert that SM concentration is a biomarker which indicates tumorgenesis in human cells. On the other hand, treatments with the molecules of the present invention induce an increase of SM in the tumour cells which is not naturally occurring. […] For example, the spectrophotometry determination of solution fluorescence of the SM levels is a very simple, quick and efficient analysis method (FIG. 1D). Thus, this invention has generated a method for diagnosis for detecting the described pathological processes and pathologies in which there are SM level changes, and also for monitoring the efficiency of the therapy using molecules of the present invention and others of similar activity. Based on this knowledge, this invention also includes kits for diagnosing these diseases.

CCCCCCCC/C=C\CCCCCCC(O)C(=O)O (racemic) [2OHOA, 2-hydroxyoleic acid]
synthesis of SM ([1]; A549, 200 μM, 24 hours): significant increase
IC50 ([2]; Homo sapiens, BXPC-3): 98.3 µM
synthesis of SM ([3]; MRC5, 200 μM, 24 hours): not in non-tumoral cells
IC50 ([4]; Homo sapiens): 127 µM
IC50 ([5]; Homo sapiens): 41.4 µM
IC50 ([6]; Homo sapiens, IMR-90): > 5000 µM
IC50 ([7]; Homo sapiens, PC-3): 138 µM
synthesis of SM ([8]; U118, 200 μM, 24 hours): significant increase
SM levels in the cell membrane (activation of enzyme EC 2.7.8.27) [8]: significant increases in SM levels
effect on systolic arterial pressure [9]: considerable therapeutic effect but of lower amplitude
synthesis of SM ([10]; 1321N1, 200 μM, 24 hours): significant increase
synthesis of SM ([11]; SF767, 200 μM, 24 hours): significant increase
synthesis of SM ([12]; 200 μM, 24 hours): significant increase
IC50 ([13]; Homo sapiens): 119 µM

CCCCCCCC/C=C\CCCCCCC(O)C(=O)O (stereo not drawn) [[−]2OHOA] [[−] HOOC—HOCH—(CH2)6—(CH═CH—CH2)1—(CH2)6—CH3]
% SM after treatment ([1]; A549, 200 μM [−]2OHOA): 33%
Effect (anti-proliferation effect) ([2]; BXPC3): +
IC50 [2]: 61.8 µM
% SM after treatment ([3]; MRC-5 non-tumoral fibroblast, 200 μM [−]2OHOA): 24%
Effect (anti-proliferation effect) [4]: +
IC50 [4]: 74.5 µM
% SM after treatment [14]: 21%
Effect (anti-proliferation effect) ([5]; HepG2): +
IC50 [5]: 32.9 µM
Effect (anti-proliferation effect) ([6]; IMR90): −
IC50 [6]: > 5000 µM
Effect (anti-proliferation effect) ([7]; PC3): +
IC50 [7]: 87 µM
% SM after treatment ([8]; U118, 200 μM [−]2OHOA): 28%
SM levels in the cell membrane (activation of enzyme EC 2.7.8.27) [8]: even greater increases in SM levels
% SM after treatment ([10]; 1321N1, 200 μM [−]2OHOA): 27%
% SM after treatment ([11]; SF767, 200 μM [−]2OHOA): 24%
% SM after treatment ([12]; 200 μM [−]2OHOA): 27%
IC50 [13]: 64.4 µM
Effect (anti-proliferation effect) ([13]; SH-SYSY): +

CCCCCCCC/C=C\CCCCCCC(O)C(=O)O (stereo not drawn) [[+]2OHOA] [[+]HOOC—HOCH—(CH2)6—(CH═CH—CH2)1—(CH2)6—CH3]
IC50 [2]: 154 µM
IC50 [4]: 206 µM
IC50 [5]: 76.7 µM
IC50 [6]: > 5000 µM
IC50 [7]: 233 µM
SM levels in the cell membrane (activation of enzyme EC 2.7.8.27) [8]: decrease in the level of SM in membranes
effect on systolic arterial pressure [9]: considerable therapeutic effect but of lower amplitude
IC50 [13]: 193 µM
